One may read the IC50 as the point on the concentration scale where inhibition reaches its midpoint. The term melting point denotes the temperature, or range, at which the solid turns liquid.

Data set [1] concerns the target T1, Jack bean Urease (Canavalia ensiformis, UniProt P07374).
T1 construct: purchased Sigma
Briefly: biochemical. On the procedure: Urease activity was obtained by measuring ammonia production using the indophenol method as described by Bankeu et al., (2017). […] Reaction mixtures with 25 μL of enzyme (Jack bean Urease bought from Sigma) solution and 55 μL of buffers containing 100 mM urea were incubated with 5 μL of compounds 1—4 (1 mM concentration) at 30 °C for 15 min in 96-well plates. In fact, 45 μL each of phenol reagent (1% w/v phenol and 0.005% w/v sodium nitroprusside) and 70 μL of alkali reagent (0.5% w/v NaOH and 0.1% active chloride NaOCl) were added to each well. The absorbance at 630 nm was recorded after 50 min, using a microplate reader (Molecular Device, USA). All reactions were performed in triplicate in a final volume of 200 μL. The results (change in absorbance per min) were processed by using Soft Max Pro software (Molecular Device, USA). All the assays were performed at pH 8.2 (0.01 M K2HPO4·3H2O, 1 mM EDTA and 0.01 M LiCl). Percentage inhibitions were calculated from the formula (Eq. 1):1 Urease inhibition%=100-ODtest/ODcontrol×100 where OD stands for optical density.
Urease inhibition percentages were used to determine the concentration that inhibit 50% of urease activity (IC50) using GraphPad Prism 5.0, USA.
The resulting data are shown as mean ± SD of three independent assays. One way one analysis of variance (ANOVA) was carried out for the determination of difference between groups (GraphPad Prism 5.0, USA). […] was considered as significant.

T1 sequence (P07374 whole entry, looked up): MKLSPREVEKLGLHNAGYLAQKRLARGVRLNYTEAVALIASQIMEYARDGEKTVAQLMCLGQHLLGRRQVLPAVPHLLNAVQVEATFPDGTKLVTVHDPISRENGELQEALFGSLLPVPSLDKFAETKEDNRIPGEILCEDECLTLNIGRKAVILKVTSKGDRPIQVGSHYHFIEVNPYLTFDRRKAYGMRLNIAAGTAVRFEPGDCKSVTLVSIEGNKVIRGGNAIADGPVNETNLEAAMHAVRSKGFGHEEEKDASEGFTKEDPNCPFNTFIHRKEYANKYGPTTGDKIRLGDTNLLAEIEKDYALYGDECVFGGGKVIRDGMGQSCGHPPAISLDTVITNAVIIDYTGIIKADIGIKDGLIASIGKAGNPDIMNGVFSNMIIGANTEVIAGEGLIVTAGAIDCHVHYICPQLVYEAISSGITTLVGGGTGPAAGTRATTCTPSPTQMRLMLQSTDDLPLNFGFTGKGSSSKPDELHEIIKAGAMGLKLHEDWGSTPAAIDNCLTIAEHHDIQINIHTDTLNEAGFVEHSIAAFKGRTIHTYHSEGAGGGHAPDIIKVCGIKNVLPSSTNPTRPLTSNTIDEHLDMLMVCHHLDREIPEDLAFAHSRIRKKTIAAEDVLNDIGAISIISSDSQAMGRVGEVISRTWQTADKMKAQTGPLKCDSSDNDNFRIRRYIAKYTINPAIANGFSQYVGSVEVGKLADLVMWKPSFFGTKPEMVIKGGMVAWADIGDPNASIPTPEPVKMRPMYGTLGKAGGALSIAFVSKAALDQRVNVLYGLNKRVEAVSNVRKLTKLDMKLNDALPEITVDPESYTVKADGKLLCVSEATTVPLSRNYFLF

With `CC1(C)CC[C@]2(C)CC[C@]3(C)C(=CCC4[C@@]5(C)CCC(=O)C(C)(C)[C@@H]5CC[C@]43C)[C@H]2C1` (stereo partly drawn) [Compound 1, β-Amyrenone], half-maximal inhibition in data set [1] (IC50) required 14.5 ± 0.21 µM.
`CC1(C)CCC2(C)CCC3(C)C(=CCC4C5(C)CC/C(=N\Nc6ccc([N+](=O)[O-])cc6[N+](=O)[O-])C(C)(C)C5CCC43C)C2C1` (centres unmarked) [Compound 2, (E)-1-(2,4-Dinitrophenyl)-2-(4,4,6a,6b,8a,11,11,14b-octamethyl-1,4,4a,5,6,6a,6b,7,8,8a,9,10,11,12,12a,14,14a,14b-octadecahydropicen-3(2H)-ylidene)hydrazine] displayed a melting point of 260 °C. In data set [1], this compound registered an IC50 of 24.6 ± 0.17 µM.
With `COc1ccc2[nH]c3c(c2c1)C[C@]1(C)C2CC=C4[C@H]5CC(C)(C)CC[C@]5(C)CC[C@@]4(C)[C@]2(C)CC[C@H]1C3(C)C` (stereo partly drawn) [Compound 3, (4aR,6aS,6bR,8aR,15aR,17bS)-13-Methoxy-2,2,4a,6a,6b,9,9,15a-octamethyl-2,3,4,4a,5,6,6a,6b,7,8,8a,9,10,15,15a,15b,16,17b-octadecahydro-1H-chryseno[2,1-b]carbazole], the IC50 in data set [1] is 22.2 ± 0.9 µM.
Regarding `CC1(C)CC[C@]2(C)CC[C@]3(C)C(=CCC4[C@@]5(C)Cc6c([nH]c7ccccc67)C(C)(C)[C@@H]5CC[C@]43C)[C@H]2C1` (stereo partly drawn) [Compound 4, (4aR,6aS,6bR,8aR,15aR,17bS)-2,2,4a,6a,6b,9,9,15a-Octamethyl-2,3,4,4a,5,6,6a,6b,7,8,8a,9,10,15,15a,15b,16,17b-octadecahydro-1H-chryseno[2,1-b]carbazole], in data set [1], the IC50 amounted to 17.9 ± 0.45 µM.

Source of the values: publication PMC6328428, “Synthesis, Urease Inhibition and Molecular Modelling Studies of Novel Derivatives of the Naturally Occurring β-Amyrenone” (Natural Products and Bioprospecting, 2018).
